Reference: article PMC2915626, “Isolation and Characterization of a Defensin-Like Peptide (Coprisin) from the Dung Beetle, Copris tripartitus” (International Journal of Peptides, 2009)
Ends that are not written are not given here.

Tests used:
[1] = system: E. coli; test: Broth microdilution assay (MIC); assay type: cell-based, Escherichia coli
Method: (§1) In addition to a radial diffusion assay, antibacterial activities of the peptides were also tested by a broth microdilution assay against E. coli and S. aureus. Briefly, bacteria were grown overnight in TSB to the onset of stationary phase at 37°C with shaking at 200 rpm. The cultures were diluted in a fresh TSB to the final concentration of 2 × 10^4 CFU/mL. A stock solution of each peptide was prepared in 0.01% acetic acid at 640 μg/mL. The peptide solution was then serially diluted in 0.01% acetic acid to 2 μg/mL. After 90 μL aliquots of the bacterial suspension were dispensed into each well of a 96-well polypropylene microtiter plate, 10 μL of peptide solution was added. The antibacterial activities of peptides were assessed by measuring visible turbidity in each well of the plate after 18 hours of incubation at 37°C. MIC was expressed as intervals (a to b), where a was the highest concentration tested at which bacteria were still growing and b was the lowest concentration that caused complete growth inhibition.

[2] = system: S. aureus; test: Broth microdilution assay (MIC); assay type: cell-based, Staphylococcus aureus
Method: as §1

[3] = broth microdilution in TSB, 2 × 10^4 CFU/mL, 18 hours at 37°C, visible turbidity, MIC as interval a to b (a highest conc. with growth, b lowest conc. with complete inhibition)

LHCIALRKK-NH2 [CopN5(22–30)]
MIC (μg/mL) E. coli [1, 3]: 8 to 16 µg/mL
MIC (μg/mL) S. aureus [2, 3]: >64 µg/mL

LHLIALRKK-NH2 [CopA1]
MIC (μg/mL) E. coli ([1]; 18 h): >64 µg/mL
MIC (μg/mL) S. aureus ([2]; 18 h): >64 µg/mL

LHRIALRKK-NH2 [CopA2]
MIC (μg/mL) E. coli ([1]; 18 h): >64 µg/mL
MIC (μg/mL) S. aureus ([2]; 18 h): >64 µg/mL

LLCIALRKK-NH2 [CopA3]
MIC (μg/mL) E. coli ([1]; 18 h): 4 to 8 µg/mL
antibacterial activity against Escherichia coli (in words) ([1]; statement of the abstract): potent antibacterial activities
MIC (μg/mL) S. aureus ([2]; 18 h): 4 to 8 µg/mL
antibacterial activity against Staphylococcus aureus (in words) ([2]; statement of the abstract): potent antibacterial activities

LRCIALRKK-NH2 [CopA4]
MIC (μg/mL) E. coli ([1]; 18 h): 16 to 32 µg/mL
MIC (μg/mL) S. aureus ([2]; 18 h): >64 µg/mL
